Measurements reported in US9302999B2, “Substituted triazoles as herbicides” (E. I. DU PONT DE NEMOURS AND COMPANY, priority 2012, dated 2016).
Where two headings read alike, the source gives them in different places.

Experiments:
Type in all cases: in vivo
corn (Zea mays) = experiment: Test A pre-/postemergence: corn; conditions: Zea mays, 240 h; for plant injury at 125 g/ha / plant injury at 500 g/ha: post-emergence, Postemergence, read-out: Corn plant response rating; for plant injury at 125 g/ha / Corn plant response rating (crop injury, 0 = no effect, 100 = complete kill) at 125 g/ha: 125 g ai/ha; for plant injury at 500 g/ha / Corn plant response rating (crop injury, 0 = no effect, 100 = complete kill) at 500 g/ha: 500 g ai/ha; for plant injury at 500 g/ha: visual rating on 0 to 100 scale (0 no effect, 100 complete control), approximately ten days; for Corn plant response rating (crop injury, 0 = no effect, 100 = complete kill) at 125 g/ha / Corn plant response rating (crop injury, 0 = no effect, 100 = complete kill) at 500 g/ha: pre-emergence, Preemergence
Procedure, shortened: (§1)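 Soil medium was loam blended with sand; treatments pre- and postemergence were applied concurrently, postemergence at one- to two-leaf stage. Approximately ten days in greenhouse preceded visual comparison with untreated controls, scored 0 (no effect) to 100 (complete control).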

[1] = tested on: barnyardgrass (Echinochloa crus-galli); experiment: Test A pre-/postemergence: barnyardgrass; conditions: Echinochloa crus-galli, 240 h; for pest or weed control at 125 g/ha: 125 g ai/ha; for pest or weed control at 500 g/ha: 500 g ai/ha
Procedure, shortened: as §1

[2] = tested on: morningglory (Ipomoea spp.); experiment: Test A pre-/postemergence: morningglory; conditions: Ipomoea, 240 h; for pest or weed control at 125 g/ha: 125 g ai/ha; for pest or weed control at 500 g/ha: 500 g ai/ha
Procedure, shortened: as §1

[3] = tested on: velvetleaf (Abutilon theophrasti); experiment: Test C pre-/postemergence: velvetleaf
Text: (§2) Seeds of plant species selected from blackgrass (Alopecurus myosuroides), bromegrass, downy (downy bromegrass, Bromus tectorum), foxtail, green (green foxtail, Setaria viridis), ryegrass, Italian (Italian ryegrass, Lolium multiflorum), winter wheat (Triticum aestivum), wild oat (Avena fatua), galium (catchweed bedstraw, Galium aparine), bermudagrass (Cynodon dactylon), surinam grass (Brachiaria decumbens), cocklebur (common cocklebur, Xanthium strumarium), corn (Zea mays), large crabgrass (Digitaria sanguinalis), woolly cupgrass (Eriochloa villosa), foxtail, giant (giant foxtail, Setaria faberii), goosegrass (Eleusine indica), johnsongrass (Sorghum halepense), kochia (Kochia scoparia), lambsquarters (Chenopodium album), morningglory (Ipomoea coccinea), nightshade (eastern black nightshade, Solanum ptycanthum), nutsedge, yellow (yellow nutsedge, Cyperus esculentus), pigweed (Amaranthus retroflexus), ragweed (common ragweed, Ambrosia elation), soybean (Glycine max), common (oilseed) sunflower (Helianthus annuus), Russian thistle (Salsola kali) and velvetleaf (Abutilon theophrasti) were planted into a blend of loam soil and sand and treated preemergence with test chemicals formulated in a non-phytotoxic solvent mixture which included a surfactant.
(§3) At the same time, plants selected from these crop and weed species and also barley (winter barley, Hordeum vulgare), canarygrass (Phalaris minor), chickweed (common chickweed, Stellaria media) windgrass (Apera spica-venti) and deadnettle (henbit deadnettle, Lamium amplexicaule) were planted in pots containing Redi-Earth® planting medium (Scotts Company, 14111 Scottslawn Road, Marysville, Ohio 43041) comprising spaghnum peat moss, vermiculite, wetting agent and starter nutrients and treated with postemergence applications of test chemicals formulated in the same manner. Plants ranged in height from 2 to 18 cm (1- to 4-leaf stage) for postemergence treatments.
(§4) Treated plants and controls were maintained in a greenhouse for 13 to 15 days, after which time all species were compared to controls and visually evaluated. Plant response ratings, summarized in Table C, are based on a scale of 0 to 100 where 0 is no effect and 100 is complete control. A dash (-) response means no test result.

[4] = tested on: ragweed (common ragweed, Ambrosia elation); experiment: Test C pre-/postemergence: ragweed; conditions: Postemergence
Text: as §2, §3, §4

[5] = tested on: lambsquarters (Chenopodium album); experiment: Test C pre-/postemergence: lambsquarters
Text: as §2, §3, §4

[6] = tested on: johnsongrass (Sorghum halepense); experiment: Test C pre-/postemergence: johnsongrass
Text: as §2, §3, §4

[7] = tested on: galium (catchweed bedstraw, Galium aparine); experiment: Test C pre-/postemergence: galium
Text: as §2, §3, §4

kochia (Kochia scoparia) = experiment: Test C pre-/postemergence: kochia
Text: as §2, §3, §4

[8] = 0 to 100 scale, 0 is no effect, 100 is complete control
[9] = 0 to 100 scale (0 no effect, 100 complete control)
[10] = post-emergence, Postemergence, 0 to 100 scale, 0 is no effect, 100 is complete control, read-out: Barnyardgrass plant response rating
[11] = post-emergence, Postemergence, visual rating on 0 to 100 scale (0 no effect, 100 complete control), approximately ten days, read-out: Barnyardgrass plant response rating
[12] = pre-emergence, Preemergence, 0 to 100 scale (0 no effect, 100 complete control), read-out: Plant response rating, Barnyardgrass
[13] = pre-emergence, Preemergence, 0 to 100 scale, 0 is no effect, 100 is complete control, read-out: Plant response rating, Barnyardgrass
[14] = post-emergence, Postemergence, 0 to 100 scale, 0 is no effect, 100 is complete control, read-out: Morningglory plant response rating
[15] = post-emergence, Postemergence, visual rating on 0 to 100 scale (0 no effect, 100 complete control), approximately ten days, read-out: Morningglory plant response rating
[16] = pre-emergence, Preemergence, 0 to 100 scale (0 no effect, 100 complete control), read-out: Plant response rating, Morningglory
[17] = pre-emergence, Preemergence, 0 to 100 scale, 0 is no effect, 100 is complete control, read-out: Plant response rating, Morningglory
[18] = Postemergence, 31 g ai/ha, scale 0 to 100 (0 no effect, 100 complete control)
[19] = Postemergence, 62 g ai/ha, scale 0 to 100 (0 no effect, 100 complete control)
[20] = Postemergence, 125 g ai/ha, scale 0 to 100, 0 no effect, 100 complete control
[21] = Postemergence, 250 g ai/ha, scale 0 to 100
[22] = Preemergence, 31 g ai/ha, scale of 0 to 100, 0 is no effect, 100 is complete control
[23] = Preemergence, 62 g ai/ha, scale of 0 to 100, 0 is no effect, 100 is complete control
[24] = Preemergence, 125 g ai/ha, scale 0 to 100, 0 no effect, 100 complete control
[25] = Preemergence, 250 g ai/ha, scale 0 to 100, 0 no effect, 100 complete control
[26] = 0 to 100 scale where 0 is no effect and 100 is complete control
[27] = pre-emergence, Preemergence, 0 to 100 scale where 0 is no effect and 100 is complete control, read-out: Plant response rating, Barnyardgrass
[28] = pre-emergence, Preemergence, 0 to 100 scale where 0 is no effect and 100 is complete control, read-out: Plant response rating, Morningglory

SMILES: Cc1nn(-c2ccc(C(F)(F)F)cc2)nc1Oc1csc(C(F)(F)F)c1 [Compound 1, 4-methyl-2-[4-(trifluoromethyl)phenyl]-5-[[5-(trifluoromethyl)-3-thienyl]oxy]-2H-1,2,3-triazole]
- plant injury at 125 g/ha (corn (Zea mays); [8]): 20%
- plant injury at 500 g/ha (corn (Zea mays)): 20%
- Corn plant response rating (crop injury, 0 = no effect, 100 = complete kill) at 125 g/ha (corn (Zea mays); [9]): 0%
- Corn plant response rating (crop injury, 0 = no effect, 100 = complete kill) at 500 g/ha (corn (Zea mays); [8]): 0%
- pest or weed control at 125 g/ha [1, 10]: 0%
- pest or weed control at 500 g/ha [1, 11]: 20%
- pest or weed control at 125 g/ha [1, 12]: 20%
- pest or weed control at 500 g/ha [1, 13]: 50%
- pest or weed control at 125 g/ha [2, 14]: 50%
- pest or weed control at 500 g/ha [2, 15]: 100%
- pest or weed control at 125 g/ha [2, 16]: 0%
- pest or weed control at 500 g/ha [2, 17]: 20%

SMILES: FC(F)(F)COc1nn(-c2ccc(C(F)(F)F)cc2)nc1Cc1ccnc(C(F)(F)F)c1 [Compound 14, 4-[[5-(2,2,2-trifluoroethoxy)-2-[4-(trifluoromethyl)phenyl]-2H-1,2,3-triazol-4-yl]methyl]-2-(trifluoromethyl)pyridine]
- plant injury at 125 g/ha (corn (Zea mays); [8]): 20%
- plant injury at 500 g/ha (corn (Zea mays)): 40%
- Corn plant response rating (crop injury, 0 = no effect, 100 = complete kill) at 125 g/ha (corn (Zea mays); [9]): 20%
- Corn plant response rating (crop injury, 0 = no effect, 100 = complete kill) at 500 g/ha (corn (Zea mays); [8]): 30%
- pest or weed control at 125 g/ha [1, 10]: 80%
- pest or weed control at 500 g/ha [1, 11]: 90%
- pest or weed control at 125 g/ha [1, 12]: 70%
- pest or weed control at 500 g/ha [1, 13]: 90%
- Plant response rating, Velvetleaf [3, 18]: 75
- Plant response rating, Velvetleaf [3, 19]: 80
- Plant response rating, Velvetleaf [3, 20]: 85
- Plant response rating, Velvetleaf [3, 21]: 90
- Plant response rating, Velvetleaf [3, 22]: 10
- Plant response rating, Velvetleaf [3, 23]: 10
- Plant response rating, Velvetleaf [3, 24]: 70
- Plant response rating, Velvetleaf [3, 25]: 75
- Plant response rating, Ragweed ([4]; 31 g ai/ha, scale 0 to 100 (0 no effect, 100 complete control)): 55
- Plant response rating, Ragweed ([4]; 62 g ai/ha, scale 0 to 100 (0 no effect, 100 complete control)): 55
- Plant response rating, Ragweed ([4]; 125 g ai/ha, scale 0 to 100, 0 no effect, 100 complete control): 60
- Plant response rating, Ragweed ([4]; 250 g ai/ha, scale 0 to 100): 80
- Plant response rating, Lambsquarters [5, 18]: 100
- Plant response rating, Lambsquarters [5, 19]: 100
- Plant response rating, Lambsquarters [5, 20]: 100
- Plant response rating, Lambsquarters [5, 21]: 100
- Plant response rating, Lambsquarters [5, 22]: 95
- Plant response rating, Lambsquarters [5, 23]: 100
- Plant response rating, Lambsquarters [5, 24]: 100
- Plant response rating, Lambsquarters [5, 25]: 100
- Plant response rating, Johnsongrass [6, 18]: 20
- Plant response rating, Johnsongrass [6, 19]: 20
- Plant response rating, Johnsongrass [6, 20]: 55
- Plant response rating, Johnsongrass [6, 21]: 75
- Plant response rating, Johnsongrass [6, 22]: 20
- Plant response rating, Johnsongrass [6, 23]: 45
- Plant response rating, Johnsongrass [6, 24]: 80
- Plant response rating, Johnsongrass [6, 25]: 85
- Plant response rating, Galium [7, 18]: 60
- Plant response rating, Galium [7, 19]: 80
- Plant response rating, Galium [7, 20]: 80
- Plant response rating, Galium [7, 21]: 80
- Plant response rating, Galium [7, 22]: 20
- Plant response rating, Galium [7, 23]: 90
- Plant response rating, Galium [7, 24]: 100
- Plant response rating, Galium [7, 25]: 100
- Plant response rating, Kochia (kochia (Kochia scoparia); [18]): 90
- Plant response rating, Kochia (kochia (Kochia scoparia); [19]): 95
- Plant response rating, Kochia (kochia (Kochia scoparia); [20]): 95
- Plant response rating, Kochia (kochia (Kochia scoparia); [21]): 95
- Plant response rating, Kochia (kochia (Kochia scoparia); [22]): 0
- Plant response rating, Kochia (kochia (Kochia scoparia); [23]): 0
- Plant response rating, Kochia (kochia (Kochia scoparia); [24]): 75
- Plant response rating, Kochia (kochia (Kochia scoparia); [25]): 85
- pest or weed control at 125 g/ha [2, 14]: 80%
- pest or weed control at 500 g/ha [2, 15]: 100%
- pest or weed control at 125 g/ha [2, 16]: 60%
- pest or weed control at 500 g/ha [2, 17]: 80%

SMILES: COCc1nn(-c2ccc(C(F)(F)F)cc2)nc1Oc1cccc(OC(F)(F)F)c1 [Compound 115, 4-(methoxymethyl)-5-[3-(trifluoromethoxy)phenoxy]-2-[4-(trifluoromethyl)phenyl]-2H-1,2,3-triazole]
- plant injury at 125 g/ha (corn (Zea mays); [8]): 10%
- plant injury at 500 g/ha (corn (Zea mays)): 30%
- Corn plant response rating (crop injury, 0 = no effect, 100 = complete kill) at 125 g/ha (corn (Zea mays); [26]): 0%
- Corn plant response rating (crop injury, 0 = no effect, 100 = complete kill) at 500 g/ha (corn (Zea mays); [9]): 10%
- pest or weed control at 125 g/ha [1, 10]: 20%
- pest or weed control at 500 g/ha [1, 11]: 30%
- pest or weed control at 125 g/ha [1, 27]: 30%
- pest or weed control at 500 g/ha [1, 12]: 60%
- pest or weed control at 125 g/ha [2, 14]: 90%
- pest or weed control at 500 g/ha [2, 15]: 100%
- pest or weed control at 125 g/ha [2, 28]: 0%
- pest or weed control at 500 g/ha [2, 16]: 10%

SMILES: FCc1nn(-c2ccc(C(F)(F)F)cc2)nc1Oc1cccc(OC(F)(F)F)c1 [Compound 116, 4-(fluoromethyl)-5-[3-(trifluoromethoxy)phenoxy]-2-[4-(trifluoromethyl)phenyl]-2H-1,2,3-triazole]
- plant injury at 125 g/ha (corn (Zea mays); [8]): 20%
- plant injury at 500 g/ha (corn (Zea mays)): 30%
- Corn plant response rating (crop injury, 0 = no effect, 100 = complete kill) at 125 g/ha (corn (Zea mays); [26]): 0%
- Corn plant response rating (crop injury, 0 = no effect, 100 = complete kill) at 500 g/ha (corn (Zea mays); [9]): 10%
- pest or weed control at 125 g/ha [1, 10]: 10%
- pest or weed control at 500 g/ha [1, 11]: 20%
- pest or weed control at 125 g/ha [1, 27]: 0%
- pest or weed control at 500 g/ha [1, 12]: 30%
- pest or weed control at 125 g/ha [2, 14]: 70%
- pest or weed control at 500 g/ha [2, 15]: 100%
- pest or weed control at 125 g/ha [2, 28]: 0%
- pest or weed control at 500 g/ha [2, 16]: 10%
